# Data: US5869476A, “Pyrimidinone derivatives” (Boryung Pharmaceutical Co., Ltd., priority 1994, dated 1999)
# Molecular target: T1, angiotensin II receptor (Oryctolagus cuniculus, UniProt P34976)
# T1 construct: The aorta was cut into 3~4 mm to form ring samples; from tissue; host or cells: isolated aorta rings of New Zealand White rabbits
# T1 sequence (P34976 1-359): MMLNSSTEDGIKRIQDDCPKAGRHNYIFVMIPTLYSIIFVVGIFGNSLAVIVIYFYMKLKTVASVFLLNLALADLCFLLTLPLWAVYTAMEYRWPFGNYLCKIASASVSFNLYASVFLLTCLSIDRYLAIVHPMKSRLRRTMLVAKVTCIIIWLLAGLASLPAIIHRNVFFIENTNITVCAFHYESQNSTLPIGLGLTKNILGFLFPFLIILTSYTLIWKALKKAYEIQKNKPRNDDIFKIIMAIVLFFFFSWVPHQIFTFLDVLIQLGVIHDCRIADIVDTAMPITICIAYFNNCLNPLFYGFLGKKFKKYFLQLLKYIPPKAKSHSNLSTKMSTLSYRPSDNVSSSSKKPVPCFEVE
# Assay: inhibition of angiotensin II induced contraction of isolated rabbit aorta rings
# Format: cell-based, New Zealand White rabbit
# Conditions: test compound incubated 20 minutes, 37° C., pH 7.4, read-out: IC50 (concentration being required to inhibit angiotensin II induced contraction by 50%)
# Method: The antagonistic activity of the representative compounds of the invention was evaluated using the methodology describe below.
# From New Zealand White rabbits (male or female, 2~2.5 kg), aorta was isolated, and fat and connected tissue were removed therefrom. The aorta was cut into 3~4 mm to form ring samples. The aorta sample was suspended in 20 ml of organ bath (37° C.) containing modified Krebs-Henseleit solution saturated with 95% O2 /5% CO2 (pH 7.4).
# The aorta preparation was exposed consecutively to 2 g of tensile strength for 90 minutes intermittently washing the sample with 30 minutes interval and then to 30 mM of KCl to observe contraction response. After washing more than three times, the aorta preparation was again allowed to contract three times for stabilization by adding Angiotensin II ([…]) thereto with 30 minutes interval. The third contraction response to Angiotensin II was considered as control.
# 10 minutes after the third contraction, the test compound was administered to the aorta preparation, which was incubated for 20 minutes.
# Comparing angiotensin II contraction curve obtained from the above inhibition test with that of the control, IC50 (concentration being required to inhibit angiotensin II induced contraction by 50%) was determined for each test compound(Table 1).
row,SMILES,IC50 [nM]
1,"CCCCc1nc(=O)c(CCCC(=O)O)c(C)n1Cc1ccc(-c2ccccc2-c2nn[nH]n2)cc1 [Compound 31, 2-n-butyl-5-(3'-carboxypropyl)-6-methyl-1-[[2'-(1H-tetrazol-5-yl)biphenyl-4-yl]methyl]-pyrimidin-4-(1H)-one]",17
2,"CCCc1nc(C)c(CC(=O)OCC)c(=O)n1Cc1ccc(-c2ccccc2-c2nnn[nH]2)cc1 [Compound 9, 2-n-propyl-5-ethoxycarbonylmethyl-6-methyl-3-[[2'-(1H-tetrazol-5-yl)biphenyl-4-yl]methyl]-pyrimidin-4-(3H)-one]",4.35
3,"CCCCc1nc(C)c(CC(=O)N2CCCCC2)c(=O)n1Cc1ccc(-c2ccccc2-c2nn[nH]n2)cc1 [Compound 45, 2-n-butyl-5-piperidinocarbonylmethyl-6-methyl-3-[[2'-(1H-tetrazol-5-yl)biphenyl-4-yl]methyl]-pyrimidin-4-(3H)-one]",2.46
4,"CCCCc1nc(C)c(CCC(=O)N2CCC(C(=O)OCC)CC2)c(=O)n1Cc1ccc(-c2ccccc2-c2nn[nH]n2)cc1 [Compound 66, 2-n-butyl-5-[2'-(4""-ethoxycarbonylpiperidino)carbonylethyl]-6-methyl-3-[[2'-(1H-tetrazol-5-yl)biphenyl-4-yl]methyl]-pyrimidin-4-(3H)-one]",9.7
5,"CCCc1nc(C)c(CC(=O)N(CC)CC)c(=O)n1Cc1ccc(-c2ccccc2-c2nnn[nH]2)cc1 [Compound 12, 2-n-propyl-5-diethylaminocarbonylmethyl-6-methyl-3-[[2'-(1H-tetrazol-5-yl)biphenyl-4-yl]methyl]-pyrimidin-4-(3H)-one]",5.59
6,"CCc1nc(C)c(CCC(=O)N(CC)CC)c(=O)n1Cc1ccc(-c2ccccc2-c2nnn[nH]2)cc1 [Compound 8, 2-ethyl-5-(2'-diethylaminocarbonylethyl)-6-methyl-3-[[2'-(1H-tetrazol-5-yl)biphenyl-4-yl]methyl]-pyrimidin-4(3H)-one]",73.6
7,"CCCCc1nc(C)c(CC(=O)OCC)c(=O)n1Cc1ccc(-c2ccccc2C(=O)O)cc1 [Compound 38, 2-n-butyl-5-ethoxycarbonylmethyl-6-methyl-3-(2'-carboxy-biphenyl-4-yl)methyl-pyrimidin-4-(3H)-one]",335
8,"CCCCc1nc(CCC)c(CCC(=O)OCC)c(=O)n1Cc1ccc(-c2ccccc2-c2nn[nH]n2)cc1 [Compound 36, 2-n-butyl-5-(2'-ethoxycarbonylethyl)-6-propyl-3-[[2'-(1H-tetrazol-5-yl)biphenyl-4-yl]methyl]-pyrimidin-4-(3H)-one]",44.5
9,"CCCCc1nc(C)c(CC(=O)N2[C@H](C)CCC[C@@H]2C)c(=O)n1Cc1ccc(-c2ccccc2-c2nn[nH]n2)cc1 [Compound 50, 2-n-butyl-5-(cis-2',6'-dimethylpiperidinocarbonylmethyl)-6-methyl-3-[[2'-(1H-tetrazol-5-yl)biphenyl-4-yl]methyl]-pyrimidin-4-(3H)-one]",28.4
10,"CCCCc1nc(C)c(CCC(=O)O)c(=O)n1Cc1ccc(-c2ccccc2-c2nnn[nH]2)cc1 [Compound 25, 2-n-butyl-5-(2'-carboxyethyl)-6-methyl-3-[[2'-(1H-tetrazol-5-yl)-biphenyl-4-yl]methyl]-pyrimidin-4-(3H)-one]",9.43

# More lines, in order of falling IC50, values ahead:
row,IC50 [nM],SMILES
1,119,"CCCCc1nc(=O)c(CC(=O)N2CCCC2)c(C)n1Cc1ccc(-c2ccccc2-c2nn[nH]n2)cc1 [Compound 41, 2-n-butyl-5-pyrrolidinocarbonylmethyl-6-methyl-1-[[2'-(1H-tetrazol-5-yl)biphenyl-4-yl]methyl]-pyrimidin-4-(1H) -one]"
2,115,"CCCCc1nc(=O)c(CCC(=O)O)c(CCC)n1Cc1ccc(-c2ccccc2-c2nn[nH]n2)cc1 [Compound 37, 2-n-butyl-5-(2'-carboxyethyl)-6-propyl-1-[[2'-(1H-tetrazol-5-yl)-biphenyl-4-yl]methyl]-pyrimidin-4-(1H)-one]"
3,17,"CCCCc1nc(C)c(CCCC(=O)OCC)c(=O)n1Cc1ccc(-c2ccccc2-c2nnn[nH]2)cc1 [Compound 29, 2-n-butyl-5-(3'-ethoxycarbonylpropyl)-6-methyl-3-[[2'-(1H-tetrazol-5-yl)biphenyl-4-yl]methyl]-pyrimidin-4-(3H)-one]"
4,15.1,"CCc1nc(C)c(CC(=O)N(CC)CC)c(=O)n1Cc1ccc(-c2ccccc2-c2nnn[nH]2)cc1 [Compound 4, 2-ethyl-5-diethylaminocarbonylmethyl-6-methyl-3-[[2'-(1H-tetrazol-5-yl)biphenyl-4-yl]methyl]-pyrimidin-4-(3H)-one]"
5,7.6,"CCCCc1nc(C)c(CCC(=O)N2CCCC(C)(C)C2)c(=O)n1Cc1ccc(-c2ccccc2-c2nn[nH]n2)cc1 [Compound 65, 2-n-butyl-5-[2'-(3"",3""-dimethylpiperidino)carbonylethyl]-6-methyl-3-[[2'-(1H-tetrazol-5-yl)biphenyl-4-yl]methyl]-pyrimidin-4-(3H)-one]"
6,7.39,"CCCc1nc(C)c(CCC(=O)O)c(=O)n1Cc1ccc(-c2ccccc2-c2nnn[nH]2)cc1 [Compound 14, 2-n-propyl-5-(2'-carboxyethyl)-6-methyl-3-[[2'-(1H-tetrazol-5-yl)-biphenyl-4-yl]methyl]-pyrimidin-4-(3H)-one]"
7,5.22,"CCCCc1nc(C)c(CCC(=O)N2CCOCC2)c(=O)n1Cc1ccc(-c2ccccc2-c2nn[nH]n2)cc1 [Compound 78, 2-n-butyl-5-(2'-morpholinocarbonylethyl)-6-methyl-3-[[2'-(1H-tetrazol-5-yl)biphenyl-4-yl]methyl]-pyrimidin-4-(3H)-one]"
8,4.63,"CCCCc1nc(C)c(CC(=O)OCC)c(=O)n1Cc1ccc(-c2ccccc2-c2nnn[nH]2)cc1 [Compound 17, 2-n-butyl-5-ethoxycarbonylmethyl-6-methyl-3-[[2'-(1H-tetrazol-5-yl)biphenyl-4-yl]methyl]-pyrimidin-4-(3H)-one]"
9,4.17,"CCCCc1nc(CC)c(CCC(=O)O)c(=O)n1Cc1ccc(-c2ccccc2-c2nn[nH]n2)cc1 [Compound 34, 2-n-butyl-5-(2'-carboxyethyl)-6-ethyl-3-[[2'-(1H-tetrazol-5-yl)-biphenyl-4-yl]methyl]-pyrimidin-4-(3H)-one]"
10,3.6,"CCCCc1nc(C)c(CC(=O)N2CCCCCCC2)c(=O)n1Cc1ccc(-c2ccccc2-c2nn[nH]n2)cc1 [Compound 57, 2-n-butyl-5-heptamethyleneiminocarbonylmethyl-6-methyl-3-[[2'-(1H-tetrazol-5-yl)biphenyl-4-yl]methyl]-pyrimidin-4-(3H)-one]"
11,2.63,"CCCCc1nc(C)c(CC(=O)O)c(=O)n1Cc1ccc(-c2ccccc2-c2nnn[nH]2)cc1 [Compound 19, 2-n-butyl-5-carboxymethyl-6-methyl-3-[[2'-(1H-tetrazol-5-yl)-biphenyl-4-yl]methyl]-pyrimidin-4-(3H)-one]"
12,2.06,"CCCCc1nc(C)c(CC(=O)N2CCC[C@H]2C(=O)OC)c(=O)n1Cc1ccc(-c2ccccc2-c2nn[nH]n2)cc1 [Compound 42, 2-n-butyl-5-[(S)-2'-methoxycarbonylpyrrolidinocarbonylmethyl]-6-methyl-3-[[2'-(1H-tetrazol-5-yl)biphenyl-4-yl]methyl]-pyrimidin-4-(3H)-one]"
13,2.04,"CCCCc1nc(C)c(CC(=O)N2CC=CC2)c(=O)n1Cc1ccc(-c2ccccc2-c2nn[nH]n2)cc1 [Compound 44, 2-n-butyl-5-(3'-pyrrolinocarbonylmethyl)-6-methyl-3-[[2'-(1H-tetrazol-5-yl)biphenyl-4-yl]methyl]-pyrimidin-4-(3H)-one]"
